Data as given in PMC10040380 (Cell Reports Medicine, 2023).

Biological target: T1, KCC2 (Homo sapiens, UniProt Q9H2X9)
T1 sequence (Q9H2X9 1-1116 isoform Q9H2X9-2): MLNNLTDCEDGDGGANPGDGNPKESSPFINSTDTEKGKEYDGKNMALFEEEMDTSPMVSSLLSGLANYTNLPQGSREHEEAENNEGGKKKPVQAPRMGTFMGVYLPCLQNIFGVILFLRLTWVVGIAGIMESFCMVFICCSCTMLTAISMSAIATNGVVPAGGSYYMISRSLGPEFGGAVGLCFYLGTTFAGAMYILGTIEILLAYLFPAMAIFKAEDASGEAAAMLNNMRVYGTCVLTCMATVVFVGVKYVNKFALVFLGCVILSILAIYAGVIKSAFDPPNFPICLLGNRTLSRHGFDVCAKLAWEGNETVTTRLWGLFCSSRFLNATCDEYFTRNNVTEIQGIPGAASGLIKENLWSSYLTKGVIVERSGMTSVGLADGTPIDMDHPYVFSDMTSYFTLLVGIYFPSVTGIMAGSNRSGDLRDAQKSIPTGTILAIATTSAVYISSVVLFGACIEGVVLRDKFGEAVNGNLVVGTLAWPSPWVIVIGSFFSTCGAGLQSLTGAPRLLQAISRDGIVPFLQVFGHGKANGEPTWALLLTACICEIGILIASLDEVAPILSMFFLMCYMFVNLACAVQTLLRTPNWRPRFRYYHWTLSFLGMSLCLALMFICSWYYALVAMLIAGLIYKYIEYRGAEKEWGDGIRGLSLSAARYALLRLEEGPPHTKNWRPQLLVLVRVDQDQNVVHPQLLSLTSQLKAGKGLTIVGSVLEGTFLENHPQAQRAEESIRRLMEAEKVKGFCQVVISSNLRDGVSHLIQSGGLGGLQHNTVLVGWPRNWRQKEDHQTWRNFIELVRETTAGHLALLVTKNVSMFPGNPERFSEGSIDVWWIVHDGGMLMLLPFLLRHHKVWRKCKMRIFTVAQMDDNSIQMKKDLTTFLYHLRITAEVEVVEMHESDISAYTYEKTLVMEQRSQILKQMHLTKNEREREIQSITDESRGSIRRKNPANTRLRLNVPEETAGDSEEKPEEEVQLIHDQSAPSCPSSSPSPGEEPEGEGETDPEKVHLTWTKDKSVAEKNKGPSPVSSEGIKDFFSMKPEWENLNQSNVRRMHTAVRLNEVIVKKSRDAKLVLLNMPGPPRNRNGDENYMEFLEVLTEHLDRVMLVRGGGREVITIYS
Assay: Tl influx FLIPR assay in HEK-293 cells expressing KCC2
Format: cell-based

Substance OV350 [compound 350] has an EC50 of 261 ± 22.2 nM.
